The values that follow come from patent US20020172720A1, “Control of pseudomonas aeruginosa” (priority 2001, published 2002).

In the assay the test system is Pseudomonas aeruginosa (ATCC 15442) biofilm. Kind of assay: MBEC (minimum biofilm eradication concentration) test, Calgary Biofilm Device. Format: cell-based. Conditions: for MBEC, ppm as Br2, on 7-day old biofilm: one-hour biocide contact time, biofilm grown seven days in nutrient solution, halogen biocides expressed as Br2. An excerpt:
The efficacy of this invention in eradicating (i.e. controlling) Pseudomonas aeruginosa biofilm of sufficient age such that it had developed an extracellular polysaccharide protective slime layer, was shown by a series of standard tests performed on our behalf at MBEC Biofilm Technologies, Inc., Calgary, Canada. The test procedure, developed at the University of Calgary, utilizes a device which allows the growth of 96 identical biofilms under carefully controlled conditions. The device consists of a two-part vessel comprised of an upper plate containing 96 pegs that seals against a bottom plate. The bottom plate can consist of either a trough (for biofilm growth) or a standard 96-well plate (for biocide challenge). The biofilms develop on the 96 pegs. The device has been used as a general method for evaluating the efficacy of antibiotics and biocides towards biofilms. See in this connection H. Ceri, et al., “The MBEC Test: A New In Vitro Assay Allowing Rapid Screening for Antibiotic Sensitivity of Biofilm”, Proceedings of the ASM, 1998,89,525; Ceri, et al., “Antifungal and Biocide Susceptibility testing of Candida Biofilms using the MBEC Device”, Proceedings of the Interscience Conference on Antimicrobial Agents and Chemotherapy, 1998, 38, 495; and H. Ceri, et al., “The Calgary Biofilm Device: A New Technology for the Rapid Determination of Antibiotic Susceptibility of Bacterial Biofilms”, Journal of Clinical Microbiology, 1999, 37, 1771-1776.
Six biocide systems were evaluated using the above test procedure and test equipment. Five of these systems were oxidizing biocides, viz., chlorine (from NaOCl), bromine (from NaOCl+NaBr), bromine and chlorine (from BCDMH), bromine (from sulfamate stabilized bromine chloride), and chlorine (from trichloroisocyanuric acid), all expressed as bromine (Br2) in mg/L, so that all test results were placed on the same basis. The sixth biocide was glutaraldehyde, a non-oxidizing biocide.
These biocide systems were used to challenge biofilms of Pseudomonas aeruginosa (ATCC 15442). This is a Gram (−) bacterium which is known to rapidly develop an extracellular polysaccharide slime layer, and is found in industrial and recreational water systems. See in this connection J. W. Costerton and H. Anwar, “Pseudomonas aeruginosa: The Microbe and Pathogen”, in Pseudomonas aeruginosa Infections and Treatment, A. L. Baltch and R. P. Smith editors, Marcel Dekker publishers, New York, 1994.
In the Table the MBEC (minimum biofilm eradication concentration) results presented are for the one-hour biocide contact time used in the test. The Psuedomonas aeurginosa colony was allowed to grow in contact with a nutrient solution for seven days. The values given for the halogen containing biocides are expressed in terms of mg/L of bromine as Br2. The data on the glutaraldehyde is in terms of mg/L as active ingredient. […]

[1] abbreviates: average of the results, one-hour contact time, 7-day old biofilm, expressed as Br2.

Values joined by “and” are separate entries in the source; they are usually repeats but may differ in a detail not shown here. Equal entries are not always repeated.

For `CC1(C)C(=O)N(Cl)C(=O)N1Br` [Bromine and chlorine (from BCDMH), N,N′-bromochloro-5,5-dimethylhydantoin], under setting [1], the “MBEC, avg.” value was found to be 7.5 ppm as Br2. The “MBEC, ppm as Br2, on 7-day old biofilm” value (individual results) is 5 ppm as Br2 and 10 ppm as Br2.

With `O=CCCCC=O` [Glutaraldehyde, glutaraldehyde], the “MBEC, avg.” value (average (est.), one-hour contact time, 7-day old biofilm, glutaraldehyde as active ingredient) is ~200 (est.) mg/L as active ingredient. In addition, the “MBEC, on 7-day old biofilm” value (individual results, one-hour contact time, 7-day old biofilm, glutaraldehyde as active ingredient) was 100 mg/L as active ingredient and > 200 mg/L as active ingredient.

For `O=c1n(Cl)c(=O)n(Cl)c(=O)n1Cl` [trichloroisocyanuric acid], the “MBEC, avg.” value under setting [1] came to 20 ppm as Br2. Besides, for the setting “individual results”, the “MBEC, ppm as Br2, on 7-day old biofilm” value is 20, 20 ppm as Br2.
